Entries after “also recorded” stand apart in the source; their conditions may differ. Like-named read-outs stand apart in the source and are kept apart here.

Data on nine molecules can be found in patent US9095589B2, “Chirally pure isomers of itraconazole for use as angiogenesis inhibitors” (Johns Hopkins University, priority 2007, dated 2015).

The subject of assay [1] is HUVEC. Put plainly: HUVEC proliferation assay ([3H]-thymidine incorporation). The class given is cell-based, human. As to conditions: for IC50: Homo sapiens, HUVEC. How it is done:
(§1) HUVEC were purchased from Cambrex Biosciences (Walkersvilie, Md.) and maintained in EGM-2 media (Cambrex) which contains VEGF, bFGF, and EGF. LPDS were purchased from Intracell. BAEC and Hela cells were maintained in DMEM media containing 10% FBS. Jurkat cells were maintained in RPMI media containing 10% FBS. In a typical experiment 5,000-10,000 cells/well in 0.2 mL EGM-2 media were allowed to adhere for 8 h and then incubated with drug for 36 h. Cells were pulsed with 1 μCi [^3H]-thymidine for 8 h (MP Biomedicals, 6.7 Ci/mmol), and harvested using trypsin onto glass fiber filters (Wallac, Turku, Finland). The readout was performed on a Perkin Elmer MicroBeta plate reader. Cells used were under five passages.
Endothelial cells form the inner lining of all blood vessels and constitute an essential part of new as well as pre-existing blood vessels. An endothelial cell proliferation assay was utilized to screen our clinical drug library. The screen was carried out in 96-well plates with each drug at a final concentration of 10 μM. Thus, HUVEC were incubated with drugs for 36 h and proliferation was measured by following incorporation of [3H]-thymidine for the final 8 h. The preliminary screen identified 210 existing drugs with at least 50% inhibition at 10 μM, which belong to multiple drug classes (FIG. 1a).
For orientation: Dividing cells build labelled thymidine or BrdU into new DNA.

Assay [2] relates to human foreskin fibroblasts (HFF). Put plainly: Human foreskin fibroblast proliferation (Calcein-AM). As to conditions: 96 h with drug. It counts as cell-based. As for the experimental part: Human foreskin fibroblast (HFF) cells were cultured at passage 2 in DMEM low glucose, 10% fetal bovine serum, and 1% penicillin-streptomycin. Experiments were performed with 2,500 cells/well in 0.2 mL and incubated for 96 h with drug. Plates containing cells were washed once with PBS, incubated with 1 μM Calcein-AM (Molecular Probes) in PBS for 4 h, and read in a fluorescent plate reader. IC50 values were determined using four-parameter logarithmic analysis with GraphPad Prism and are presented as mean±s.e.m. for triplicate experiments.

Assay [3] has as its system BAEC. Put plainly: BAEC proliferation with or without free cholesterol ([3H]-thymidine). It counts as cell-based, bovine. As to conditions: for IC50: Bos taurus, DMEM 10% LPDS, 36 h. As for the experimental part: BAEC were incubated in DMEM, 10% lipoprotein deficient serum (LPDS) with indicated concentrations of itraconazole (a) azalanstat (b) or TNP-470 (c) either alone or in combination with 40 μg/ml free cholesterol for 36 h. Cells were then pulsed with 1 μCi [^3H]-thymidine for 8 h before they are harvested for scintillation counting.
as §1
A hallmark of inhibitors of 14DM is that their potencies are dependent on the levels of cholesterol in cell culture medium. Thus, the potencies of both azalanstat and itraconazole in cell culture media either containing or lacking cholesterol was determined.

Assay [4] deals with BAEC. Put plainly: Cell cycle progression of BAEC. The class given is cell-based, bovine.
Assay [5] relates to new blood vessel formation in Matrigel plugs. Put plainly: Mouse Matrigel model of angiogenesis. It counts as in vivo. The following applies: mice, 37.5 mg/kg i.p. once daily, Matrigel with VEGF and bFGF, 10 days.
Description: To determine whether itraconazole inhibited angiogenesis in vivo, itraconazole was tested in a mouse Matrigel model. […] Female athymic nude 5-week old, 25-30 g mice were purchased from NO and treated in accordance with standard procedures. In all animal experiments the i.v. formulation of itraconazole was obtained from the Johns Hopkins Hospital Pharmacy. Control mice were treated with vehicle (40% hydroxypropyl-β-cyclodextrin, 2.5% propylene glycol, pH 4.5). Mice were pretreated for three days and then implanted subcutaneously with 0.5 mL of Matrigel (BD Biosciences) containing 100 ng/mL VEGF and 150 ng/mL bFGF. Drug treatment was continued daily for 10 days, mice were sacrificed, and plugs were harvested, fixed in neutral buffered formalin, and processed for histology using MAS-trichrome staining. A cross section of the entire Matrigel plug was photographed at 100× and erythrocyte-filled blood vessels were counted per field in a blinded manner. P-values comparing itraconazole versus vehicle treated mice were determined using the two-tailed Student's T-test; and the data are presented as mean±s.e.m.
The test system of assay [6] is HUVEC. Kind of assay: HUVEC Proliferation Assay of itraconazole stereoisomers. The class given is cell-based, human. How it is done:
HUVEC were plated in a 96-well plate at a density of 2000 cells/well 199 μL media. After recovering overnight, cells were incubated for 24 hours with drugs added from 200×DMSO stocks. Next, cells were incubated with 0.9 μCi of [^3H]-thymidine for 6 h, washed once with PBS, trypsinized, and transferred to filtermats (Wallac) using a Mach III M Harvester 96 (Tomtec). The filtermats were then dried overnight. Using a 1450 Microbeta apparatus (Wallac), the amount of [^3H] at each position on the filtermat was determined by scintillation counting. Counts from vehicle only treated controls were used to normalize for maximum proliferation. Experiments were conducted in triplicate with multiple technical replicates for each data point. A four parameter logistic regression was used to determine IC50 values (GraphPad Prism [v4.03]).
(§2) After the quality of all stereoisomers was confirmed, the potency of each stereoisomer against HUVEC proliferation and fungal growth was determined (FIG. 7). HUVEC were incubated with drug or vehicle alone for 24 hours and then pulsed for 6 hours with [^3H]-thymidine, the incorporation of which was taken as a readout of cell proliferation. Inhibition of fungal growth was assayed by incubating five yeast strains with 2-fold serial dilutions of each stereoisomer for 30-60 hours depending on the strain, and then measuring the OD600 of the culture to quantitate growth. The minimum concentration capable of inhibiting growth by 80% (MIC80) was determined.

Assay [7] has as its system HUVEC. Kind of assay: HUVEC cell cycle analysis (propidium iodide, FACS). The class given is cell-based, human. An excerpt:
To delineate the mechanism of inhibition of endothelial cell proliferation by itraconazole, the effect on the cell cycle progression of HUVEC by fixing and staining cells with propidium iodide followed by FACS analysis was examined.

A further assay has as its system five yeast strains. Put plainly: Fungal Susceptibility Assays (MIC80). As to conditions: four out of five strains. It counts as cell-based, C. glabrata, C. neoformans, S. cerevisiae, C. albicans. From the text:
(§3) Pooled HUVEC and EGM-2 bullet kits were purchased from Lonza. Powdered RPMI 1640 media with L-glutamine and without sodium bicarbonate was purchased from Gibco. Amino acids, uracil, and agar were purchased from Sigma and morpholinepropanesulfonic acid (MOPS) was purchased from Fisher. Dimethyl Sulfoxide (DMSO) was purchased from J. T. Baker. C. glabrata strains BG1 (J. Infect. Dis. 1996, 173, 425-431) and BG2 (Genetics 1999, 151, 979-987), C. neoformans H99 (Am. J. Pathol. 1980, 101, 177-193), S. cerevisiae BY4741 (MATa, ura3, his3, leu2, met15), and C. albicans (ATCC 10261) were used.
Fungi were grown overnight in 5 mL YES supplemented 225 mg/L adenine, histidine, leucine, uracil, and lysine (supplemented YES) at 30° C. with shaking. […] Abs600 was measured using a plate reader (Bio-Tek Synergy HT) after vigorous shaking for 45 seconds to resuspend the cells. The background absorbance from noninoculated wells was subtracted and the absorbance of test wells was divided by that of wells treated with vehicle alone. […]
After the quality of all stereoisomers was confirmed, the potency of each stereoisomer against HUVEC proliferation and fungal growth was determined (FIG. 7). HUVEC were incubated with drug or vehicle alone for 24 hours and then pulsed for 6 hours with [^3H]-thymidine, the incorporation of which was taken as a readout of cell proliferation. […]

In another assay the test system is C. neoformans H99. Kind of assay: Fungal Susceptibility Assay (MIC80), C. neoformans. It counts as cell-based.
Source text: as §3
Fungi were grown overnight in 5 mL YES supplemented 225 mg/L adenine, histidine, leucine, uracil, and lysine (supplemented YES) at 30° C. with shaking. Cultures were diluted to 0.01 OD600 in RPMI (with L-glutamine, without sodium bicarbonate) which was supplemented with 2% glucose, 225 mg/L adenine, histidine, methionine, leucine, uracil, and lysine and buffered with 165 mM MOPS to 7.0 (complete RPMI). This solution was then further diluted 190-fold in complete RPMI in 96-well plates containing test compounds in a final volume of 150 μL. When practical, the intermediate RPMI dilution was bypassed and the overnight cultures were directly diluted to the appropriate OD600 in the RPMI solution that was added to the 96-well plates. Two-fold serial dilutions of the compounds were tested starting at 4 ug/mL with each well containing 0.125% vehicle (DMSO). The plates were incubated in a humidified environment at 30° C. with shaking for 30 hours except for experiments with C. neoformans which was incubated for 54 h. Abs600 was measured using a plate reader (Bio-Tek Synergy HT) after vigorous shaking for 45 seconds to resuspend the cells. The background absorbance from noninoculated wells was subtracted and the absorbance of test wells was divided by that of wells treated with vehicle alone. The percent of remaining growth for each drug concentration was averaged over 2-3 independent experiments, each with two technical replicates, and the minimum concentration giving 80% inhibition (MIC80) was determined.
as §2

Setting [8] is: 40 μg/ml free cholesterol, read-out: IC50, endothelial cell proliferation in the presence of cholesterol.
[9] abbreviates: no cholesterol, read-out: IC50, endothelial cell proliferation in the absence of cholesterol.

With `CCC(C)n1ncn(-c2ccc(N3CCN(c4ccc(OCC5COC(Cn6cncn6)(c6ccc(Cl)cc6Cl)O5)cc4)CC3)cc2)c1=O` (racemic) [Itraconazole], the IC50 in the assay with HUVEC [1] is 160 nM; in assay [2] it was above 20000 nM; with BAEC [3] (setting [8]), 230 nM; with BAEC [3] (setting [9]), 44 nM. Also, the “percentage of cells in G1” value is 66.2% in the assay with BAEC [4] (Cholesterol) and 77.0% in the assay on BAEC [4] (Control (no added cholesterol)). The “percentage of cells in G2/M” value in the assay with BAEC [4] (Cholesterol) and in the assay with BAEC [4] (Control (no added cholesterol)) was 12.0% throughout. Moreover, the “percentage of cells in S” value came to 21.2% in the assay with BAEC [4] (Cholesterol) and 10.5% in the assay with BAEC [4] (Control (no added cholesterol)). Besides, the “decrease in new blood vessel formation compared to vehicle-treated controls” value in assay [5] is given as 67.5%.
`CCC(C)n1ncn(-c2ccc(N3CCN(c4ccc(OC[C@@H]5CO[C@@](Cn6cncn6)(c6ccc(Cl)cc6Cl)O5)cc4)CC3)cc2)c1=O` (single isomer, unassigned; diastereomer 4) [4R-cis diastereomer]: in the assay with HUVEC [1], the “fold more potent than the 4S-cis stereoisomer, HUVEC proliferation” value is “about 20 fold” and the IC50 is 56 ± 10 nM. The “potency against HUVEC proliferation” value with HUVEC [6] was “slightly more potent than the cis-4S isomer”.
`CCC(C)n1ncn(-c2ccc(N3CCN(c4ccc(OC[C@H]5CO[C@](Cn6cncn6)(c6ccc(Cl)cc6Cl)O5)cc4)CC3)cc2)c1=O` (single isomer, unassigned; stereoisomer 4) [4S-cis stereoisomer]: in the assay with HUVEC [1], the IC50 is 1100 ± 130 nM. For the same molecule, the “effect on HUVEC cell cycle progression” value in the assay with HUVEC [7] is “potently inhibits HUVEC cell cycle progression at the G1/S transition”.
On to `Nc1ccc(SC[C@@H]2CO[C@](CCc3ccc(Cl)cc3)(Cn3ccnc3)O2)cc1` [Azalanstat], for which the IC50 turned out to be 1200 nM with BAEC [3] (setting [8]) and 310 nM with BAEC [3] (setting [9]). The “percentage of cells in G1” value in the assay on BAEC [4] (Cholesterol) was 70.2%; in the assay on BAEC [4] (Control (no added cholesterol)) it was 74.5%. Also, the “percentage of cells in G2/M” value is 10.0% in the assay on BAEC [4] (Cholesterol) and 8.8% with BAEC [4] (Control (no added cholesterol)). For the same molecule, the “percentage of cells in S” value with BAEC [4] (Cholesterol) stood at 19.4%; in the assay on BAEC [4] (Control (no added cholesterol)), 16.8%. For the same molecule, in the assay with HUVEC [7], the “effect on HUVEC cell cycle progression” value is listed as “blocked the cell cycle progression”.
As for `CC[C@H](C)n1ncn(-c2ccc(N3CCN(c4ccc(OC[C@@H]5CO[C@@](Cn6cncn6)(c6ccc(Cl)cc6Cl)O5)cc4)CC3)cc2)c1=O` [Compound 23a, 4-(4-(4-(4-(((2S,4R)-2-((1H-1,2,4-triazol-1-yl)methyl)-2-(2,4-dichlorophenyl)-1,3-dioxolan-4-yl)methoxy)phenyl)piperazin-1-yl)phenyl)-1-((S)-sec-butyl)-1H-1,2,4-triazol-5(4H)-one], in the assay with HUVEC [6], the “potency against HUVEC proliferation” value is on record as “greatest antiangiogenic potential”. Further, the “difference in potency between 23a and 23f (most and least potent), HUVEC proliferation” value in the assay with HUVEC [6] (24 h with drug) is listed as “greater than 4 fold”.
For `CC[C@@H](C)n1ncn(-c2ccc(N3CCN(c4ccc(OC[C@@H]5CO[C@@](Cn6cncn6)(c6ccc(Cl)cc6Cl)O5)cc4)CC3)cc2)c1=O` [Compound 23b, 4-(4-(4-(4-(((2S,4R)-2-((1H-1,2,4-triazol-1-yl)methyl)-2-(2,4-dichlorophenyl)-1,3-dioxolan-4-yl)methoxy)phenyl)piperazin-1-yl)phenyl)-1-((R)-sec-butyl)-1H-1,2,4-triazol-5(4H)-one], in the assay with HUVEC [6], the “potency against HUVEC proliferation” value was “greatest antiangiogenic potential”.
In the case of `CC[C@H](C)n1ncn(-c2ccc(N3CCN(c4ccc(OC[C@H]5CO[C@@](Cn6cncn6)(c6ccc(Cl)cc6Cl)O5)cc4)CC3)cc2)c1=O` [Compound 23e, 4-(4-(4-(4-(((2S,4S)-2-((1H-1,2,4-triazol-1-yl)methyl)-2-(2,4-dichlorophenyl)-1,3-dioxolan-4-yl)methoxy)phenyl)piperazin-1-yl)phenyl)-1-((S)-sec-butyl)-1H-1,2,4-triazol-5(4H)-one], the “antifungal potency” value in the assay with five yeast strains is reported as “roughly as potent as the cis-diastereomers; also recorded: about as potent as the cis diastereomers”. For the same molecule, in the assay on C. neoformans H99, the “fold less potent than 23g and 23h” value amounted to 2 fold; the “fold less potent than the best inhibitor” value stood at 32 fold.
The corresponding values for `CC[C@@H](C)n1ncn(-c2ccc(N3CCN(c4ccc(OC[C@H]5CO[C@@](Cn6cncn6)(c6ccc(Cl)cc6Cl)O5)cc4)CC3)cc2)c1=O` [Compound 23f, 4-(4-(4-(4-(((2S,4S)-2-((1H-1,2,4-triazol-1-yl)methyl)-2-(2,4-dichlorophenyl)-1,3-dioxolan-4-yl)methoxy)phenyl)piperazin-1-yl)phenyl)-1-((R)-sec-butyl)-1H-1,2,4-triazol-5(4H)-one] are “roughly as potent as the cis-diastereomers; also recorded: about as potent as the cis diastereomers”, 2 fold and 32 fold.
For the molecule `CO[C@@H]1[C@H](OC(=O)NC(=O)CCl)CC[C@]2(CO2)[C@H]1[C@@]1(C)O[C@@H]1CC=C(C)C` [TNP-470], the “potency on endothelial cell proliferation in absence versus presence of cholesterol” value in the assay with BAEC [3] (with or without 40 μg/ml free cholesterol) was “roughly equal potency”.
